# Experimental data reported in patent publication US7696238B2, “Substituted benzo[d]isoxazol-3-yl amine compounds as analgesics” (Gruenenthal GmbH, priority 2005, dated 2010).
# Biological target: T1, KCNQ2/3 ion channel (KCNQ2/3-expressing CHO-K1 cells) (Homo sapiens, UniProt O43525+O43526)
# T1 construct: expressed in transfected cells; host or cells: CHO-K1
# Test: Fluorescence assay (FLIPR instrument, membrane potential dye) for substances acting agonistically on the KCNQ2/3 ion channel
# Format: cell-based
# Details: difference between maximum and minimum values, agonistic action detected from a value of −40 (and below)
# Experimental: Pharmacological Test Methods I. Fluorescence Assay (FLIPR™ Instrument) for the Identification of Substances Acting Agonistically on the KCNQ2/3 Ion Channel
# On the day before the experiment, KCNQ2/3-expressing CHO-K1 cells and CHO-K1 empty strain cells were seeded out onto coated poly-D-lysine black/clear plates (Falcon/BD Company; Order No.: 356640) in a concentration of 20000 cells/100 μl MEM alpha, 50 ml FCS, 5.5 ml PIS/G/solution (100×) and then incubated for 20-24 hours in an incubator (37° C., 5% CO2). On the day of the experiment the HBSS/hepes working solution and the FMP/HBSS/hepes mixture (Membrane Potential Assay Kit Red (FMP), bulk format Cat. No. R8123) were initially prepared according to the following protocol:
# • 1000 ml 1× HBSS buffer (Hank's Balanced Salt Solution (1×) (Gibco; No. 14025)+10 ml hepes (1M stock solution, pH 7.4; hepes Na salt (Sigma Company; No. H7006-500 g; storage at 4° C. in a refrigerator) 2. 1× FMP/HBSS/hepes working solution: • 6 ml HBSS/hepes buffer are added to 5 ml of the FMP solution stored at −20° C. (preparation see below; thawing out at room temperature). The test substances (2 mM batch solution in 100% DMSO) contained in drug plates (Costar 96-well plates, catalogue No. 3795) were then diluted by adding HBSS/hepes buffer to a concentration of 30 μM (3× concentrated). The assay plates on which the cells grow were washed once with 200 μl HBSS/hepes (Cellwash Washer, Labsystems Company, catalogue No. 5161550) and the remaining volume was removed by tapping out the inverted plate twice. 100 μl of the FMP/HBSS/hepes working solution were then added in each case to the cell plates and incubated for 1 hour in the CO2 incubator at 37° C. and 5% CO2. The measurements are then carried out with a FLIPR III instrument from the Molecular Devices company (96-format, using the 540-590 nm band-pass filter in the #2 localization). In the experimental setup of the FLIPR software, filter #2 should be selected. The cell plates and the substance plates were fed alternately into the input stack. A signal test was carried out in each case with the cell plates before adding the substance. The test substances were then added via the pipetting unit of the FLIPR (added volume 50 μl, 3× concentrated, end concentration 10 μM) to the cavities of the cell plates in a total volume of 150 μl/well. The threshold data of the FLIPR program were as follows:
# The pipette tips were washed after each pipetting procedure 3 times with 1% DMSO in water. The times of the measurement intervals after addition of the test substances are as follows:
# Total measurement time: 6 min/plate
# The test samples were evaluated by calculating the difference between the maximum and minimum values. EC50/IC50 values are calculated using the Graph Pad Prism software.
# Preparation of the membrane potential loading buffer (membrane potential assay kit red (FMP), bulk format cat. No. R8123) according to the manufacturer's instructions:
# 10 ml of the 10× assay buffer (component B) were diluted with 90 ml of sterile water and then adjusted to pH 7.4 with 1.0N NaOH (1× assay buffer). One vessel with the FLIPR membrane potential assay component A was completely dissolved in 100 ml 1× assay buffer and thoroughly mixed for 10 minutes with a magnetic stirrer. 5 ml aliquots were then stored at −20° C. (storage shelf life ca. 2 weeks).
# An agonistic action can be detected starting from a value of −40 (and below).
row,Structure (SMILES),"FLIPR membrane potential fluorescence change (ΔF %, max minus min); negative values indicate KCNQ2/3 agonism [%]"
1,"S=C(Nc1noc2ccccc12)NC1CCCCC1 [Example 23, 1-benzo[d]isoxazol-3-yl-3-cyclohexyl-thiourea]",−40
2,"COC(=O)C(C)NC(=S)Nc1noc2cccc(F)c12 (centres unmarked) [Example 50, 2-[3-(4-fluoro-benzo[d]isoxazol-3-yl)-thioureido]-propionic acid methyl ester]",−59.5
3,"S=C(NCc1ccccc1)Nc1noc2cccc(Cl)c12 [Example 52, 1-benzyl-3-(4-chloro-benzo[d]isoxazol-3-yl)-thiourea]",−67.5
4,"CC(NC(=S)Nc1noc2cccc(Cl)c12)c1ccccc1 (centres unmarked) [Example 53, 1-(4-chlorobenzo[d]isoxazol-3-yl)-3-(1-phenyl-ethyl)-thiourea]",−42.5
5,"CC(C)CNC(=S)Nc1noc2cccc(N(C)C)c12 [Example 54, 1-(4-dimethylamino-benzo[d]isoxazol-3-yl)-3-isobutyl-thiourea]",−64
6,"Cc1ccc(NC(=S)Nc2noc3cccc(N(C)C)c23)cc1 [Example 55, 1-(4-dimethylamino-benzo[d]-isoxazol-yl)-3-p-tolyl-thiourea]",−84
7,"CN(C)c1cccc2onc(NC(=S)NCc3ccccc3)c12 [Example 64, 1-benzyl-3-(4-dimethylamino-benzo[d]isoxazol-3-yl)-thiourea]",−52
8,"COCCCNC(=S)Nc1noc2cccc(N(C)C)c12 [Example 65, 1-(4-dimethylamino-benzo[d]isoxazol-3-yl)-3-(3-methoxypropyl)-thiourea]",−79
9,"COc1ccc(NC(=S)Nc2noc3cccc(OCC(F)(F)F)c23)cc1 [Example 84, 1-(4-methoxyphenyl)-3-[4-(2,2,2-trifluoroethoxy)-benzo[d]isoxazol-3-yl]-thiourea]",−40
10,"CCCCCCCCCNC(=S)Nc1noc2cccc(OCc3ccc(C)cc3)c12 [Example 87, 1-[4-(4-methylbenzyloxy)-benzo[d]isoxazol-3-yl]-3-nonyl-thiourea]",−66.5
11,"Cc1ccc(COc2cccc3onc(NC(=S)NC4CCCCC4)c23)cc1 [Example 90, 1-cyclohexyl-3-[4-(4-methylbenzyloxy)-benzo[d]isoxazol-3-yl]-thiourea]",−41.5
12,"CN(C)c1ccc(NC(=S)Nc2noc3cccc(OCC(F)(F)F)c23)cc1 [Example 92, 1-(4-dimethylaminophenyl)-3-[4-(2.2,2-trifluoroethoxy)-benzo[d]isoxazol-3-yl]-thiourea]",−51
13,"C=CCNC(=S)Nc1noc2ccc(C)cc12 [Example 93, 1-allyl-3-(5-methylbenzo[d]isoxazol-3-yl)-thiourea]",−45.5
14,"COC(=O)CNC(=S)Nc1noc2ccc(C)cc12 [Example 94, [3-(5-methylbenzo[d]isoxazol-3-yl)-thioureido]-acetic acid methyl ester]",−47
15,"Fc1ccc2onc(NC(=S)NCC3CCCO3)c2c1 (centres unmarked) [Example 98, 1-(5-fluorobenzo[d]isoxazol-3-yl)-3-(tetrahydrofuran-2-yl-methyl)-thiourea]",−43.5
16,"S=C(Nc1noc2cc(Cl)ccc12)NC1CCCC1 [Example 103, 1-(6-chlorobenzo[d]isoxazol-3-yl)-3-cyclopentyl-thiourea]",−58
17,COc1cccc(NC(=S)Nc2noc3cc(Cl)ccc23)c1 [Example 107],−80
18,"COc1ccc(NC(=S)Nc2noc3cc(Br)ccc23)cc1OC [Example 108, 1-(6-bromobenzo[d]isoxazol-3-yl)-3-(3.4-dimethoxyphenyl)-thiourea]",−53.5
19,"C=CCNC(=S)Nc1noc2c(F)cccc12 [Example 123, 1-allyl-3-(7-fluorobenzo[d]-isoxazol-3-yl)-thiourea]",−55

# The next lines start with the values.
row,"FLIPR membrane potential fluorescence change (ΔF %, max minus min); negative values indicate KCNQ2/3 agonism [%]",Structure (SMILES)
1,−49,"CCOc1ccc(NC(=S)Nc2noc3ccccc23)cc1 [Example 31, 1-benzo[d]isoxazol-3-yl-3-(4-ethoxyphenyl)-thiourea]"
2,−50,"Cc1ccccc1NC(=S)Nc1noc2cccc(Cl)c12 [Example 51, 1-(4-chlorobenzo[d]isoxazol-3-yl)-3-o-tolyl-thiourea]"
3,−55,"CN(C)c1cccc2onc(NC(=S)Nc3cccc(Cl)c3)c12 [Example 56, 1-(3-chlorophenyl)-3-(4-dimethylaminobenzo[d]isoxazol-3-yl)-thiourea]"
4,−56,"Cc1cc(C)cc(NC(=S)Nc2noc3cccc(N(C)C)c23)c1 [Example 63, 1-(4-dimethylamino-benzo[d]isoxazol-3-yl)-3-(3,5-dimethylphenyl)-thiourea]"
5,−64,"Cc1ccc2onc(NC(=S)Nc3ccccc3C(C)C)c2c1 [Example 95, 1-(2-isopropylphenyl)-3-(5-methyl-benzo[d]isoxazol-3-yl)-thiourea]"
6,−57,"Cc1ccc2onc(NC(=S)Nc3ccc(C(F)(F)F)cc3)c2c1 [Example 96, 1-(5-methylbenzo[d]isoxazol-3-yl)-3-(4-trifluoromethylphenyl)-thiourea]"
7,−58.5,"COC(=O)C(C)NC(=S)Nc1noc2ccc(F)cc12 (centres unmarked) [Example 97, 2-[3-(5-fluorobenzo(d]isoxazol-3-yl)-thioureido]-propionic acid methyl ester]"
8,−42,"CCc1ccccc1NC(=S)Nc1noc2ccc(Br)cc12 [Example 100, 1-(5-bromobenzo[d]isoxazol-3-yl)-3-(2-ethylphenyl)-thiourea]"
9,−59,"COc1ccc(NC(=S)Nc2noc3cc(Cl)ccc23)cc1 [Example 106, 1-(6-chlorobenzo[d]isoxazol-3-yl)-3-(4-methoxyphenyl)-thiourea]"
10,−55,"Cc1cccc(Cl)c1NC(=S)Nc1noc2cc(F)ccc12 [Example 113, 1-(2-chloro-6-methylphenyl)-3-(6-fluorobenzo[d]isoxazol-3-yl)-thiourea]"
11,−54,"CC(C)c1cccc(C(C)C)c1NC(=S)Nc1noc2cc(F)ccc12 [Example 114, 1-(2,6-diisopropylphenyl)-3-(6-fluorobenzo[d]isoxazol-3-yl)-thiourea]"
12,−50,"Cc1ccc(NC(=S)Nc2noc3c(F)cccc23)cc1 [Example 124, 1-(7-fluorobenzo[d]isoxazol-3-yl)-3-p-tolyl-thiourea]"
13,−47,"COc1cccc2onc(NC(=S)NC(C)c3ccccc3)c12 (centres unmarked) [Example 128, 1-(4-methoxybenzo[d]isoxazol-3-yl)-3-(1-phenylethyl)-thiourea]"
